Test [1] deals with Mycobacterium tuberculosis. The experiment in a line: Antitubercular activity against Mycobacterium tuberculosis H37Rv at 12.5 ug/ml. It counts as functional.
For test [2], the system named is Mycobacterium tuberculosis. The experiment in a line: Antitubercular activity against Mycobacterium tuberculosis H37Rv at 6.25 ug/ml. It counts as functional.
The test system of the next test is NCI60. The experiment in a line: Cytotoxicity against human NCI60 cells. It counts as functional, cell-based.

SMILES strings stand for the structures. Calls of active or inactive are those of the source. The calls are words filed in the database; no cut-off is given here.

In test [1], `CC(C)=C[C@@H]1C[C@H](C)[C@H]2CC[C@H](C)c3c2c1c(C)c1ncoc31` [PSEUDOPTEROXAZOLE] registered an Activity of 97%.
Turning to `CC(C)=CCC[C@H](C)[C@H]1CC[C@H](C)c2cc(O)c(C)cc21`, in test [2], the Activity worked out at 77%. Further, the result with NCI60 was inactive.
`CC(C)=CCC[C@H](C)[C@H]1CC[C@H](C)c2ccc(C)cc21` [EROGORGIAENE] had an Activity in test [1] of 96%.
In test [1], `CC(C)=CCC[C@H](C)[C@H]1CC[C@H](C)c2c1cc(C)c1ncoc21` showed an Activity of 66%.
